According to ChEMBL document CHEMBL3885861, “Open TG-GATES”:

Species: Rattus norvegicus
Assay: Open TG-GATES - Regimen: Single
Type: toxicity, organism-based, Sprague-Dawley
Design: regimen Single, gender Male, age 6 weeks
Conditions: in vivo, po, 150 mg/kg, route gavage, dose level High; for APTT / Bas / Eos / Fbg / Hb / Ht / Lym / MCH / MCHC / MCV / Mono / Neu / PT / Plat / RBC / Ret / WBC: tissue Blood; for KIDNEY_L / KIDNEY_R / KIDNEY_TOTAL: tissue Kidney; for LIVER: tissue Liver; for A/G / ALP / ALT / AST / BUN / CRE / Ca / Cl / DBIL / GLC / IP / K / LDH / Na / PL / RALB / TBIL / TC / TG / TP / gamma-GTP: tissue Plasma

Q: With CC(C)C(=O)Nc1ccc([N+](=O)[O-])c(C(F)(F)F)c1 [FLUTAMIDE] as the compound, how does the TERMINAL_BW (3 h) read?
A: 210.6 g

Q: What about the APTT (3 h) of the same compound?
A: 19.7 s

Q: And the Bas (3 h)?
A: 0%

Q: And the Eos (3 h)?
A: 0.8%

Q: And the Fbg (3 h)?
A: 220.4 mg/dL

Q: And the Hb (3 h)?
A: 13.3 g/dL

Q: And the Ht (3 h)?
A: 38.7%

Q: What about the Lym (3 h) of the same compound?
A: 75%

Q: What about the MCH (3 h) of the same compound?
A: 21.5 pg

Q: What about the MCHC (3 h) of the same compound?
A: 34.4%

Q: What about the MCV (3 h) of the same compound?
A: 62.6 fL

Q: What about the Mono (3 h) of the same compound?
A: 3.6%

Q: And the Neu (3 h)?
A: 19.8%

Q: What about the PT (3 h) of the same compound?
A: 13 s

Q: What about the Plat (3 h) of the same compound?
A: 121.6 x10_4/uL

Q: What about the RBC (3 h) of the same compound?
A: 617.2 x10_4/ul

Q: And the Ret (3 h)?
A: 7.5%

Q: And the WBC (3 h)?
A: 89.1 x10_2/uL

Q: And the KIDNEY_L (3 h)?
A: 0.9 g

Q: And the KIDNEY_R (3 h)?
A: 0.9 g

Q: What about the KIDNEY_TOTAL (3 h) of the same compound?
A: 1.8 g

Q: What about the LIVER (3 h) of the same compound?
A: 9.3 g

Q: What about the A/G (3 h) of the same compound?
A: 1.4

Q: What about the ALP (3 h) of the same compound?
A: 936.4 IU/L

Q: And the ALT (3 h)?
A: 35.4 IU/L

Q: And the AST (3 h)?
A: 69.8 IU/L

Q: And the BUN (3 h)?
A: 9.4 mg/dL

Q: What about the CRE (3 h) of the same compound?
A: 0.4 mg/dL

Q: And the Ca (3 h)?
A: 10.6 mg/dL

Q: What about the Cl (3 h) of the same compound?
A: 102.8 meq/L

Q: What about the DBIL (3 h) of the same compound?
A: 0.1 mg/dL

Q: What about the GLC (3 h) of the same compound?
A: 212.8 mg/dL

Q: And the IP (3 h)?
A: 9.6 mg/dL

Q: What about the K (3 h) of the same compound?
A: 3.7 meq/L

Q: And the LDH (3 h)?
A: 158.4 IU/L

Q: And the Na (3 h)?
A: 140.8 meq/L

Q: And the PL (3 h)?
A: 152 mg/dL

Q: And the RALB (3 h)?
A: 3.4 g/dL

Q: What about the TBIL (3 h) of the same compound?
A: 0.2 mg/dL

Q: What about the TC (3 h) of the same compound?
A: 78 mg/dL

Q: And the TG (3 h)?
A: 77.4 mg/dL

Q: And the TP (3 h)?
A: 5.7 g/dL

Q: What about the gamma-GTP (3 h) of the same compound?
A: 1.4 IU/L

Q: What about the TERMINAL_BW (6 h) of the same compound?
A: 207.7 g

Q: What about the APTT (6 h) of the same compound?
A: 18.6 s

Q: What about the Bas (6 h) of the same compound?
A: 0%

Q: And the Eos (6 h)?
A: 0.6%

Q: And the Fbg (6 h)?
A: 213 mg/dL

Q: What about the Hb (6 h) of the same compound?
A: 13.4 g/dL

Q: And the Ht (6 h)?
A: 38.9%

Q: What about the Lym (6 h) of the same compound?
A: 79.6%

Q: And the MCH (6 h)?
A: 21.3 pg

Q: And the MCHC (6 h)?
A: 34.4%

Q: What about the MCV (6 h) of the same compound?
A: 62.1 fL

Q: And the Mono (6 h)?
A: 1.4%

Q: And the Neu (6 h)?
A: 17.8%

Q: And the PT (6 h)?
A: 12.7 s

Q: And the Plat (6 h)?
A: 127.8 x10_4/uL

Q: What about the RBC (6 h) of the same compound?
A: 626.6 x10_4/ul

Q: What about the Ret (6 h) of the same compound?
A: 7.3%

Q: And the WBC (6 h)?
A: 62.5 x10_2/uL

Q: What about the KIDNEY_L (6 h) of the same compound?
A: 0.9 g

Q: And the KIDNEY_R (6 h)?
A: 0.9 g

Q: And the KIDNEY_TOTAL (6 h)?
A: 1.9 g

Q: What about the LIVER (6 h) of the same compound?
A: 9.2 g

Q: And the A/G (6 h)?
A: 1.6

Q: And the ALP (6 h)?
A: 813 IU/L

Q: What about the ALT (6 h) of the same compound?
A: 32.4 IU/L

Q: What about the AST (6 h) of the same compound?
A: 63.8 IU/L

Q: What about the BUN (6 h) of the same compound?
A: 11.2 mg/dL

Q: What about the CRE (6 h) of the same compound?
A: 0.3 mg/dL

Q: What about the Ca (6 h) of the same compound?
A: 10.8 mg/dL

Q: What about the Cl (6 h) of the same compound?
A: 99.2 meq/L

Q: What about the DBIL (6 h) of the same compound?
A: 0.08 mg/dL

Q: And the GLC (6 h)?
A: 238.4 mg/dL

Q: And the IP (6 h)?
A: 9.7 mg/dL

Q: And the K (6 h)?
A: 3.8 meq/L

Q: And the LDH (6 h)?
A: 132.6 IU/L

Q: What about the Na (6 h) of the same compound?
A: 139.2 meq/L

Q: And the PL (6 h)?
A: 148.6 mg/dL

Q: And the RALB (6 h)?
A: 3.5 g/dL

Q: And the TBIL (6 h)?
A: 0.1 mg/dL

Q: What about the TC (6 h) of the same compound?
A: 84.4 mg/dL

Q: What about the TG (6 h) of the same compound?
A: 33.2 mg/dL

Q: And the TP (6 h)?
A: 5.7 g/dL

Q: What about the gamma-GTP (6 h) of the same compound?
A: 1 IU/L

Q: What about the TERMINAL_BW (9 h) of the same compound?
A: 207.4 g

Q: What about the APTT (9 h) of the same compound?
A: 19.7 s

Q: What about the Bas (9 h) of the same compound?
A: 0%

Q: And the Eos (9 h)?
A: 0.8%

Q: What about the Fbg (9 h) of the same compound?
A: 223.8 mg/dL

Q: And the Hb (9 h)?
A: 13.1 g/dL

Q: What about the Ht (9 h) of the same compound?
A: 38.5%

Q: And the Lym (9 h)?
A: 77.4%

Q: What about the MCH (9 h) of the same compound?
A: 21.6 pg

Q: What about the MCHC (9 h) of the same compound?
A: 34%

Q: And the MCV (9 h)?
A: 63.5 fL

Q: What about the Mono (9 h) of the same compound?
A: 3.8%

Q: And the Neu (9 h)?
A: 17%

Q: And the PT (9 h)?
A: 12.8 s

Q: What about the Plat (9 h) of the same compound?
A: 127.2 x10_4/uL

Q: What about the RBC (9 h) of the same compound?
A: 605.6 x10_4/ul

Q: What about the Ret (9 h) of the same compound?
A: 7.7%

Q: And the WBC (9 h)?
A: 69.1 x10_2/uL

Q: What about the KIDNEY_L (9 h) of the same compound?
A: 0.9 g

Q: What about the KIDNEY_R (9 h) of the same compound?
A: 0.9 g

Q: What about the KIDNEY_TOTAL (9 h) of the same compound?
A: 1.8 g

Q: What about the LIVER (9 h) of the same compound?
A: 8.7 g

Q: And the A/G (9 h)?
A: 1.6

Q: What about the ALP (9 h) of the same compound?
A: 711.8 IU/L

Q: What about the ALT (9 h) of the same compound?
A: 29.2 IU/L

Q: What about the AST (9 h) of the same compound?
A: 57.6 IU/L

Q: What about the BUN (9 h) of the same compound?
A: 10.2 mg/dL

Q: What about the CRE (9 h) of the same compound?
A: 0.4 mg/dL

Q: What about the Ca (9 h) of the same compound?
A: 10.5 mg/dL

Q: What about the Cl (9 h) of the same compound?
A: 102.8 meq/L

Q: What about the DBIL (9 h) of the same compound?
A: 0.07 mg/dL

Q: And the GLC (9 h)?
A: 220.6 mg/dL

Q: And the IP (9 h)?
A: 9.1 mg/dL

Q: And the K (9 h)?
A: 3.8 meq/L

Q: And the LDH (9 h)?
A: 149.4 IU/L

Q: And the Na (9 h)?
A: 139.8 meq/L

Q: What about the PL (9 h) of the same compound?
A: 165.4 mg/dL

Q: What about the RALB (9 h) of the same compound?
A: 3.4 g/dL

Q: And the TBIL (9 h)?
A: 0.1 mg/dL

Q: What about the TC (9 h) of the same compound?
A: 89.6 mg/dL

Q: And the TG (9 h)?
A: 73 mg/dL

Q: What about the TP (9 h) of the same compound?
A: 5.7 g/dL

Q: And the gamma-GTP (9 h)?
A: 0.8 IU/L

Q: What about the TERMINAL_BW (24 h) of the same compound?
A: 213.1 g

Q: What about the APTT (24 h) of the same compound?
A: 17.7 s

Q: And the Bas (24 h)?
A: 0%

Q: What about the Eos (24 h) of the same compound?
A: 1%

Q: What about the Fbg (24 h) of the same compound?
A: 218 mg/dL

Q: And the Hb (24 h)?
A: 13.1 g/dL

Q: And the Ht (24 h)?
A: 39.3%

Q: And the Lym (24 h)?
A: 82.4%

Q: What about the MCH (24 h) of the same compound?
A: 21.6 pg

Q: And the MCHC (24 h)?
A: 33.3%

Q: And the MCV (24 h)?
A: 65 fL

Q: What about the Mono (24 h) of the same compound?
A: 2.2%

Q: What about the Neu (24 h) of the same compound?
A: 13.6%

Q: What about the PT (24 h) of the same compound?
A: 12.8 s

Q: What about the Plat (24 h) of the same compound?
A: 129.1 x10_4/uL

Q: What about the RBC (24 h) of the same compound?
A: 605.4 x10_4/ul

Q: And the Ret (24 h)?
A: 6.8%

Q: And the WBC (24 h)?
A: 77.2 x10_2/uL

Q: And the KIDNEY_L (24 h)?
A: 1 g

Q: And the KIDNEY_R (24 h)?
A: 0.9 g

Q: What about the KIDNEY_TOTAL (24 h) of the same compound?
A: 1.9 g

Q: What about the LIVER (24 h) of the same compound?
A: 9.9 g

Q: And the A/G (24 h)?
A: 1.4

Q: What about the ALP (24 h) of the same compound?
A: 990.6 IU/L

Q: What about the ALT (24 h) of the same compound?
A: 32.6 IU/L

Q: What about the AST (24 h) of the same compound?
A: 69.6 IU/L

Q: And the BUN (24 h)?
A: 12.2 mg/dL

Q: What about the CRE (24 h) of the same compound?
A: 0.4 mg/dL

Q: What about the Ca (24 h) of the same compound?
A: 10.5 mg/dL

Q: What about the Cl (24 h) of the same compound?
A: 104.4 meq/L

Q: And the DBIL (24 h)?
A: 0.082 mg/dL

Q: And the GLC (24 h)?
A: 213 mg/dL

Q: What about the IP (24 h) of the same compound?
A: 7.5 mg/dL

Q: What about the K (24 h) of the same compound?
A: 3.8 meq/L

Q: What about the LDH (24 h) of the same compound?
A: 145.4 IU/L

Q: And the Na (24 h)?
A: 141.2 meq/L

Q: What about the PL (24 h) of the same compound?
A: 175.8 mg/dL

Q: What about the RALB (24 h) of the same compound?
A: 3.3 g/dL

Q: And the TBIL (24 h)?
A: 0.1 mg/dL

Q: And the TC (24 h)?
A: 107.4 mg/dL

Q: What about the TG (24 h) of the same compound?
A: 57.4 mg/dL

Q: And the TP (24 h)?
A: 5.7 g/dL

Q: And the gamma-GTP (24 h)?
A: 0.8 IU/L
